Measurements from the NIST ThermoML archive (doi:10.1021/je030226s).

Key:
[1] = xn = mol fraction of the nth substance listed; conditions: 101.32 kPa, Liquid
[2] = refractive index (Na D-line) (dimensionless); xn = mol fraction of the nth substance listed; conditions: 101.32 kPa, Liquid

CCCCCl [1-chlorobutane] + CCCCO
Conditions | mass density, 288.15 K [kg/m3] | mass density, 298.15 K [kg/m3] | mass density, 308.15 K [kg/m3] | refractive index, 288.15 K | refractive index, 298.15 K | refractive index, 308.15 K | viscosity, 288.15 K [mPa·s] | viscosity, 298.15 K [mPa·s] | viscosity, 308.15 K [mPa·s]
[1], x2 = 0 | 892.2 | 881 | 869.7 | – | – | – | 0.472 | 0.423 | 0.382
[1], x2 = 0.05 | 888 | 876.9 | 865.7 | – | – | – | 0.49 | 0.437 | 0.388
[1], x2 = 0.1 | 884.3 | 873.3 | 862.3 | – | – | – | 0.506 | 0.453 | 0.41
[1], x2 = 0.2 | 877 | 866.3 | 855.5 | – | – | – | 0.569 | 0.499 | 0.442
[1], x2 = 0.3 | 869.7 | 859.4 | 848.9 | – | – | – | 0.655 | 0.569 | 0.497
[1], x2 = 0.4 | 862.4 | 852.4 | 842.2 | – | – | – | 0.781 | 0.665 | 0.57
[1], x2 = 0.5 | 854.9 | 845.3 | 835.4 | – | – | – | 0.953 | 0.798 | 0.676
[1], x2 = 0.6 | 847.3 | 838 | 828.6 | – | – | – | 1.196 | 0.977 | 0.81
[1], x2 = 0.7 | 839.4 | 830.5 | 821.5 | – | – | – | 1.528 | 1.221 | 1
[1], x2 = 0.8 | 831.2 | 822.7 | 814.1 | – | – | – | 1.979 | 1.563 | 1.251
[1], x2 = 0.9 | 822.6 | 814.5 | 806.3 | – | – | – | 2.601 | 2.019 | 1.584
[1], x2 = 0.95 | 818.1 | 810.3 | 802.3 | – | – | – | 2.966 | 2.328 | 1.784
[2], x2 = 0 | – | – | – | 1.4045 | 1.3993 | 1.3941 | – | – | –
[2], x2 = 0.05 | – | – | – | 1.4041 | 1.3989 | 1.3936 | – | – | –
[2], x2 = 0.1 | – | – | – | 1.4039 | 1.3987 | 1.3934 | – | – | –
[2], x2 = 0.2 | – | – | – | 1.4035 | 1.3984 | 1.3932 | – | – | –
[2], x2 = 0.3 | – | – | – | 1.4031 | 1.3982 | 1.3931 | – | – | –
[2], x2 = 0.4 | – | – | – | 1.4029 | 1.3981 | 1.3931 | – | – | –
[2], x2 = 0.5 | – | – | – | 1.4027 | 1.398 | 1.3932 | – | – | –
[2], x2 = 0.6 | – | – | – | 1.4024 | 1.3979 | 1.3932 | – | – | –
[2], x2 = 0.7 | – | – | – | 1.4022 | 1.3978 | 1.3933 | – | – | –
[2], x2 = 0.8 | – | – | – | 1.4019 | 1.3977 | 1.3933 | – | – | –
[2], x2 = 0.9 | – | – | – | 1.4016 | 1.3975 | 1.3933 | – | – | –
[2], x2 = 0.95 | – | – | – | 1.4013 | 1.3974 | 1.3933 | – | – | –
